Test results from publication PMC5573760 (Cancer Chemotherapy and Pharmacology, 2017).
“And” between values parts separate entries of the source, which are not always exact repeats. Equal values may be shown once.

Columns and labels:
[1] = format: in vivo, human
Protocol: All subjects gave written informed consent; the study was conducted at PRA Health Sciences (Zuidlaren, The Netherlands) in accordance with the Declaration of Helsinki and was approved by an accredited institutional ethics committee (Medisch Ethische Toetsings Commissie, Assen, The Netherlands).
Subjects remained fasting until 2-h after the end of the infusion. Volunteers stayed in-house until 14 days after the application and subsequently urine and feces were collected for 24-h on Day 16, 20, 27 and 34 if necessary, cf. below.
Urine was collected pre-dose, at 0–12-h and 12–24 h after the start of the infusion and thereafter over 24-h intervals on Day 2 to Day 14 as well as on Day 16, 20, 27 and 34 (±1 day). Cumulative 24-h fecal samples were collected from Day 1 (day of infusion) to Day 14 and as well as on Day 16, 20, 27 and 34 (±1 day). […] The excreted radioactivity between ambulant visits during the prolongation phase of the clinical study was calculated using interpolation to get a more realistic total excretion value of all subjects (see "Pharmacokinetic analysis").
(§1) After pooling and homogenization of urine and feces samples per time interval, aliquots were stored at −20 °C for total radioactivity determination and at −70°C for metabolic profiling (including blood/plasma samples). For determination of total radioactivity, samples were analyzed with a Perkin Elmer Tri-Carb™ 3100 TR liquid scintillation analyzer (Perkin Elmer, Waltham, MA, USA) with quenching correction. For metabolite profiling, plasma samples were treated with a mixture of acetonitrile (ACN) +0.2% acetic acid, after shaking and centrifugation, the supernatant was concentrated. Urine and feces samples were treated with solid-phase extraction (Waters HLB 30 mg, 1 mL, Waters, Milford, MA, USA) and liquid–liquid extraction (ACN + 0.2% trifluoroacetic acid/water, 80:20 volume/volume), respectively. Subsequently samples from plasma, urine and feces were analyzed by HPLC-LSC on Synergi Polar 4 µm 150 × 2 mm (Phenomenex, Aschaffenburg, Germany) with off-line radioactivity detection by Microbeta^2™ Plus liquid scintillation counter with Ultima Flo™ AP scintillation fluid (Packard Instrument BV, Groningen, The Netherlands).
For blood/plasma ratio determination, total radioactivity in urine and feces well as data from HPLC analysis data from radioactivity measurement by liquid scintillation counting (LSC) were considered. The amount of radioactivity recovered in the excreta (A E) was related to the administered radioactive dose to establish the radioactive balance. Arithmetic means and coefficients of variation (CV) were calculated for these percentages. […] Cumulative excretion was calculated as sum of the collection intervals. The elimination of the total radioactivity in urine and feces for time-points beyond day 14 was performed by log-linear extrapolation between analyzed time-points. Amounts of radioactivity excreted in urine and feces between two ambulant visits were calculated per interpolated day by linear interpolation of log-transformed excretion data separately per matrix (lnA E(interpolated day) = Δdays × [lnA E(Visit i + 1) − lnA E(Visit i)]/[day (Visit i + 1) − day (Visit i)] + lnA E(Visit i), with A E given as amount of radioactivity excreted in matrix per day and Δdays being the difference between the calculated day and the last available visit with A E > 0). In case no feces sample was provided on an ambulant visit, this visit was neglected for interpolation.

[2] = Mass balance: excretion of radioactivity, copanlisib and metabolites in urine and feces; format: in vivo, human; conditions: for Amount excreted in feces as this component, arithmetic mean (range): HPLC with off-line radioactivity detection
Protocol: as §1
Metabolite patterns in plasma, urine and feces were studied by the HPLC method with off-line radioactivity detection described above.
A similar approach has been described earlier.

[3] = tested on: breast Cancer Resistance Protein (BCRP); parameters: method as in Bayer AG, data on file; conditions: in vitro; ref Bayer AG, data on file; cited from earlier work
[4] = tested on: PI3K-α; conditions: cited from earlier work
[5] = tested on: PI3K-δ; conditions: cited from earlier work
[6] = tested on: primary malignant B cell lines; conditions: cited from earlier work
[7] = whole blood, range of 6 subjects
[8] = all 6 subjects after individual study release (Day 20–Day 34)
[9] = study release at Day 20 (N = 6)
[10] = study release at Day 27 (N = 5)
[11] = study release at Day 34 (N = 3)

COc1c(OCCCN2CCOCC2)ccc2c1N=C(NC(=O)c1cnc(N)nc1)N1CCN=C21 [Copanlisib, copanlisib]
Total radioactivity AUC (0–t last) in blood, geometric mean (% CV) ([1]; in vivo): 558 (28.8%) ng-Eq·h/mL | Total radioactivity AUC (0–t last) in blood, range ([1]; in vivo): 347–756 ng-Eq·h/mL | Total radioactivity AUC (0–t last) in plasma, geometric mean (% CV) ([1]; in vivo): 324 (54.1%) ng-Eq·h/mL | Total radioactivity AUC (0–t last) in plasma, range ([1]; in vivo): 150–601 ng-Eq·h/mL | Total radioactivity t last in plasma, median ([1]; plasma): 60 h | Total radioactivity t max in plasma, median ([1]; plasma): 60 min | Recovery of radioactivity extractable from plasma ([1]; plasma extraction, no indication of covalent adduct formation): > 90% | Total radioactivity C max in plasma, geometric mean (% CV) ([1]; plasma, 12 mg copanlisib (2.76 MBq 14C) 1-h infusion): 45.6 (26.0%) ng-Eq/mL | Total radioactivity C max in plasma, range ([1]; plasma, range of 6 subjects): 32.1–57.6 ng-Eq/mL | Total radioactivity t last in plasma, range ([1]; plasma, range of 6 subjects): 24 to 96 h | Total radioactivity t max in plasma, range ([1]; plasma, range of 6 subjects): 30 to 60 min | Total radioactivity C max in blood, geometric mean (% CV) ([1]; whole blood): 83.5 (26.3%) ng-Eq/mL | Total radioactivity t last in blood, median ([1]; whole blood): 72 h | Total radioactivity t max in blood, median ([1]; whole blood): 60 min | Total radioactivity C max in blood, range [1, 7]: 59.2–114 ng-Eq/mL | Total radioactivity t last in blood, range [1, 7]: 36 to 72 h | Total radioactivity t max in blood, range [1, 7]: 30 to 60 min | Total radioactivity excreted in feces, arithmetic mean [2, 8]: 64.2 (56.7–68.1) % of dose | Total radioactivity excreted in feces, range [2, 8]: 56.7–68.1% | Total radioactivity excreted in urine, arithmetic mean [2, 8]: 21.7 (17.0–27.4) % of dose | Total radioactivity excreted in urine, range [2, 8]: 17.0–27.4% | Total radioactivity recovery in urine and feces, mean [2, 8]: 86% and 85.9 ± 3.4% and about 86% | Total radioactivity recovery in urine and feces, range [2, 8]: 81.7–91.0% | Amount excreted in feces as this component, arithmetic mean (range) ([2]; 6 subjects): 30.1 (16.8–37.9) % of dose | Amount excreted in feces as this component, arithmetic mean (range) ([2]; 6 subjects, listed as copanlisib): 30 % of dose | Dose cleared via metabolism ([2]; in vivo): about 41% | Renal clearance (A e,ur/AUC) as share of total body clearance ([2]; in vivo): about 15% | Share of observed renal clearance accounted for by passive renal filtration ([2]; in vivo): about one to two-thirds | Excreted radioactivity in feces, mean [2, 9]: 61.0 ± 4.1% | Excreted radioactivity in feces, range [2, 9]: 54.8–66.7% | Excreted radioactivity in urine, mean [2, 9]: 20.0 ± 3.5% | Excreted radioactivity in urine, range [2, 9]: 16.3–26.5% | Excreted total radioactivity in urine and feces, mean [2, 9]: 81.0 ± 2.1% | Excreted total radioactivity in urine and feces, range [2, 9]: 77.8–83.0% | Excreted radioactivity in feces, mean [2, 10]: 63.4 ± 4.5% | Excreted radioactivity in feces, range [2, 10]: 56.7–67.4% | Excreted radioactivity in urine, mean [2, 10]: 21.5 ± 3.9% | Excreted radioactivity in urine, range [2, 10]: 17.0–27.4% | Excreted total radioactivity in urine and feces, mean [2, 10]: 84.9 ± 2.3% | Excreted total radioactivity in urine and feces, range [2, 10]: 82.3–88.5% | Excreted radioactivity in feces, mean [2, 11]: 66.1 ± 3.2% | Excreted radioactivity in feces, range [2, 11]: 62.4–68.1% | Excreted radioactivity in urine, mean [2, 11]: 22.2 ± 1.4% | Excreted radioactivity in urine, range [2, 11]: 20.6–23.1% | Excreted total radioactivity in urine and feces, mean [2, 11]: 88.3 ± 2.9% | Excreted total radioactivity in urine and feces, range [2, 11]: 85.2–91.0% | Radioactivity excreted that could be assigned to known structures ([2]; urine and feces): Over 98% | Amount of dose recovered as this component in urine and feces combined ([2]; urine plus feces, 6 subjects): 45.1 % of dose | Amount of dose recovered as this component in urine and feces combined, range ([2]; urine plus feces, range of 6 subjects): 33.3–53.8% | Substrate of efflux transporter BCRP [3]: substrate | PI3K-α inhibitory activity [4]: predominant PI3K-α and PI3K-δ inhibitory activity | PI3K-δ inhibitory activity [5]: predominant PI3K-α and PI3K-δ inhibitory activity | Tumor cell death [6]: induce tumor cell death including apoptosis
